Measurements as given in patent US11591341B2 (ALIGOS THERAPEUTICS, INC., priority 2019, dated 2023).

System: HBV
Assay: HBV-DNA Antiviral Assay Using HepG2.117 Cells (intracellular HBV DNA by qPCR)
Assay type: cell-based, hepatitis B virus (genotype D)
Conditions: Hepatitis B virus, HepG2.117
How it was run: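 HepG2.117 cells (genotype D HBV, Tet-off) were induced by doxycycline withdrawal and treated for 3 days with 9 concentrations in 4-fold dilution, 2% DMSO final. Intracellular HBV DNA was measured by qPCR against a standard curve, with ATPlite viability read in parallel. EC50, EC90 and CC50 came from fits against the DMSO control.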

## COc1ccc([C@@H](C)NC(=O)c2c3n(c(=O)n2-c2ccc(OC4CC4)cc2)C[C@H](C)N(C(=O)c2ccc(Br)c(Cl)c2)C3)cc1 (racemic) [Example 450, (6SR)-7-(4-bromo-3-chloro-benzoyl)-2-[4-(cyclopropoxy)phenyl]-N-[(1R)-1-(4-methoxyphenyl)ethyl]-6-methyl-3-oxo-6,8-dihydro-5H-imidazo[1,5-a]pyrazine-1-carobxamide]
  EC50: < 100 nM

## CC1Cn2c(c(C(=O)NCc3ccccc3-c3ncccn3)n(-c3ccc(OC4CC4)cc3)c2=O)CN1C(=O)c1ccc(Br)c(C#N)c1 (racemic) [Example 451, rac-(6R)-7-(4-bromo-3-cyano-benzoyl)-2-[4-(cyclopropoxy)phenyl]-6-methyl-3-oxo-N-[(2-pyrimidin-2-ylphenyl)methyl]-6,8-dihydro-5H-imidazo[1,5-a]pyrazine-1-carboxamide]
  EC50: 100 to 500 nM

## C[C@H]1Cn2c(c(C(=O)NCc3ccccc3-c3ncccn3)n(-c3ccc(OC4CC4)cc3)c2=O)CN1C(=O)c1ccc(Br)c(C#N)c1 (racemic) [Example 452, rac-(6S)-7-(4-bromo-3-cyano-benzoyl)-2-[4-(cyclopropoxy)phenyl]-6-methyl-3-oxo-N-[(2-pyrimidin-2-ylphenyl)methyl]-6,8-dihydro-5H-imidazo[1,5-a]pyrazine-1-carboxamide]
  EC50: < 100 nM

## C[C@@H](NC(=O)c1c2n(c(=O)n1-c1ccccc1)CCN(C(=O)c1ccc(Br)c(Cl)c1)C2)c1ccccc1 (stereo in doubt) [Example 37, 7-(4-bromo-3-chloro-benzoyl)-3-oxo-2-phenyl-N-[rac-(1R)-1-phenylethyl]-6,8-dihydro-5H-imidazo[1,5-a]pyrazine-1-carboxamide]
  EC50: 500 to 5000 nM

## C[C@H](NC(=O)c1c2n(c(=O)n1-c1ccccc1)CCN(C(=O)c1ccc(Br)c(Cl)c1)C2)c1ccccc1 (stereo in doubt) [Example 38, 7-(4-bromo-3-chloro-benzoyl)-3-oxo-2-phenyl-N-[rac-(1S)-1-phenylethyl]-6,8-dihydro-5H-imidazo[1,5-a]pyrazine-1-carboxamide]
  EC50: 500 to 5000 nM

## COc1ccc(-n2c(C(=O)N[C@H](C)c3ccccc3)c3n(c2=O)CCN(C(=O)c2ccc(Cl)c(Cl)c2)C3)cc1 (stereo in doubt) [Example 68, 7-(3,4-dichlorobenzoyl)-2-(4-methoxyphenyl)-3-oxo-N-[rac-(1R)-1-phenylethyl]-6,8-dihydro-5H-imidazo[1,5-a]pyrazine-1-carboxamide]
  EC50: 500 to 5000 nM

## COc1ccc(-n2c(C(=O)N[C@@H](C)c3ccccc3)c3n(c2=O)CCN(C(=O)c2ccc(Br)c(Cl)c2)C3)cc1 (stereo in doubt) [Example 69, 7-(4-bromo-3-chloro-benzoyl)-2-(4-methoxypehnyl)-3-oxo-N-[rac-(1S)-1-phenylethyl]-6,8-dihydro-5H-imidazo[1,5-a]pyrazine-1-carboxamide]
  EC50: 100 to 500 nM

## COc1ccc(-n2c(C(=O)N[C@@H](C)c3ccccc3)c3n(c2=O)CCN(C(=O)c2ccc(Cl)c(Cl)c2)C3)cc1 (stereo in doubt) [Example 70, 7-(3,4-dichlorobenzoyl)-2-(4-methoxyphenyl)-3-oxo-N-[rac-(1S)-1-phenylethyl]-6,8-dihydro-5H-imidazo[1,5-a]pyrazine-1-carboxamide]
  EC50: 500 to 5000 nM

## COc1ccc([C@@H](C)NC(=O)c2c3n(c(=O)n2-c2ccc(OC)cc2)CCN(C(=O)c2ccc(Br)c(Cl)c2)C3)cc1 (stereo in doubt) [Example 72, 7-(4-bromo-3-chloro-benzoyl)-2-(4-methoxyphenyl)-3-oxo-N-[rac-(1R)-1-(4-methoxyphenyl)ethyl]-6,8-dihydro-5H-imidazo[1,5-a]pyrazine-1-carboxamide]
  EC50: 500 to 5000 nM

## COc1ccc([C@H](C)NC(=O)c2c3n(c(=O)n2-c2ccc(OC)cc2)CCN(C(=O)c2ccc(Br)c(Cl)c2)C3)cc1 (stereo in doubt) [Example 73, 7-(4-bromo-3-chloro-benzoyl)-2-(4-methoxyphenyl)-3-oxo-N-[rac-(1S)-1-(4-methoxyphenyl)ethyl]-6,8-dihydro-5H-imidazo[1,5-a]pyrazine-1-carboxamide]
  EC50: < 100 nM

## COc1ccc(-n2c(C(=O)N[C@H](C)c3ccccc3)c3n(c2=O)CCN(C(=O)c2ccc(Br)c(Cl)c2)C3)cc1 (stereo in doubt) [Example 82, 7-(4-bromo-3-chloro-benzoyl)-2-(4-methoxyphenyl)-3-oxo-N-[rac-(1R)-1-phenylethyl]-6,8-dihydro-5H-imidazo[1,5-a]pyrazine-1-carboxamide]
  EC50: 100 to 500 nM

## C[C@@H]1CN(Cc2ccccc2)C(=O)c2c3n(c(=O)n2C1)CCN(C(=O)c1ccc(Br)c(Cl)c1)C3 (stereo in doubt) [Example 97, rac-(11R)-13-benzyl-4-(4-bromo-3-chloro-benzoyl)-11-methyl-4,7,9,13-tetrazatricyclo[7.5.0.0^2,7]tetradec-1-ene-8.14-dione]
  EC50: 500 to 5000 nM

## C[C@H]1CN(Cc2ccccc2)C(=O)c2c3n(c(=O)n2C1)CCN(C(=O)c1ccc(Br)c(Cl)c1)C3 (stereo in doubt) [Example 98, rac-((1S)-13-benzyl-4-(4-bromo-3-chloro-benzoyl)-11-methyl-4,7,9,13-tetrazatricyclo[7.5.0.0^2,7]tetradec-1-ene-8.14-dione]
  EC50: 500 to 5000 nM

## COc1ccc(-n2c(C(=O)N[C@@H]3CCc4cc(OC)ccc43)c3n(c2=O)CCN(C(=O)c2ccc(Br)c(Cl)c2)C3)cc1 (stereo in doubt) [Example 99, 7-(4-bromo-3-chloro-benozyl)-2-(4-methoxyphenyl)-3-oxo-N-[rac-(1R)-5-methoxyindazin-1-yl]-6,8-dihydro-5H-imidazo[1,5-a]pyrazine-1-carboxamide]
  EC50: 500 to 5000 nM

## COc1ccc(-n2c(C(=O)N[C@H]3CCc4cc(OC)ccc43)c3n(c2=O)CCN(C(=O)c2ccc(Br)c(Cl)c2)C3)cc1 (stereo in doubt) [Example 100, 7-(4-bromo-3-chloro-benzoyl)-2-(4-methoxyphenyl)-3-oxo-N-[rac-(1S)-5-methoxyindazin-1-yl]-6,8-dihydro-5H-imidazo[1,5-a]pyrazine-1-carboxamide]
  EC50: 100 to 500 nM

## C[C@H](NC(=O)c1c2n(c(=O)n1C)CCN(C(=O)c1ccc(Br)c(Cl)c1)C2)c1ccccc1 (stereo in doubt) [Example 112, 7-(4-bromo-3-chloro-benzoyl)-2-methyl-3-oxo-N-[rac-(1S)-1-phenylethyl]-6,8-dihydro-5H-imidazo[1,5-a]pyrazine-1-carboxamide]
  EC50: > 5000 nM

## C[C@@H](NC(=O)c1c2n(c(=O)n1C)CCN(C(=O)c1ccc(Br)c(Cl)c1)C2)c1ccccc1 (stereo in doubt) [Example 113, 7-(4-bromo-3-chloro-benzoyl)-2-methyl-3-oxo-N-[rac-(1R)-1-phenylethyl]-6,8-dihydro-5H-imidazo[1,5-a]pyrazine-1-carboxamide]
  EC50: 500 to 5000 nM

## C[C@H](NC(=O)c1c2n(c(=O)n1-c1ccc(OCC(F)(F)F)cc1)CCN(C(=O)c1ccc(Br)c(Cl)c1)C2)c1ccccc1 (stereo in doubt) [Example 127, 7-(4-bromo-3-chloro-benzoyl)-3-oxo-N-[rac-(1S)-1-phenylethyl]-2-[4-(2,2,2-trifluoroethoxy)phenyl]-6,8-dihydro-5H-imidazo[1,5-a]pyrazine-1-carboxamide]
  EC50: 500 to 5000 nM
